In US10787476B2, “Glycoamino acid and use thereof” (AJINOMOTO CO., INC., priority 2013, dated 2020):

What was measured:
[1] = Heat stability of aqueous Glc-Leu solution (free Leu by HPLC); assay type: physicochemical; details: aqueous solution 100 mg/dl; for Leu liberated: 90° C.
Procedure: On the other hand, free Leu was not confirmed at 60° C. even after 72 hr, and sufficient heat stability as an amino acid precursor was shown.

[2] = Dissolution rate in stirring water; assay type: physicochemical; details: for dissolution rate: inside temperature 34° C., n=2
Procedure: Leu and Glc-Leu were each added to stirring water (inside temperature 34° C.) in a hot-water bath at 35° C., and the dissolution rate was measured. The amount of the sample added and the measurement results are as shown below (n=2). As compared to Leu, Glc-Leu was dissolved 46 times faster in equal weight and 17 times faster in equimolar amount.

α/β-glucosidase = assay: Glucosidase treatment, amino acid production amount by HPLC; assay type: in vitro ADME; details: phosphate buffer pH 5.5, 37° C., 30 min later
Procedure: Glc-Phe, Glc-Leu, Glc-Lys, Glc-Glu and Glc-DOPA were each dissolved in phosphate buffer (pH 5.5) at the ratio shown in Table 2, α/β-glucosidase in the amount shown in Table 2 was added, and the mixture was stirred in a hot-water bath at 37° C. The mixture was diluted 2-fold with 1% aqueous phosphoric acid solution, and analyzed by HPLC. […] As for Glc-Leu, about 80% of leucine was liberated 1 hr later; as for Glc-Lys, about 20% of lysine was liberated 1 hr later; as for Glc-Glu, about 40% of glutamic acid was liberated 1 hr later; and as for Glc-DOPA, about 70% of 3,4-dihydroxyphenylalanine was liberated 1 hr later.

[3] = equivalent weight, 300 mg/25 ml water

free Leu ([1]; 60° C., after 72 hr)	Leu liberated ([1]; 72 hr)	Leu liberated ([1]; about 6 hr)	dissolution rate [2, 3]	dissolved faster as compared to Leu ([2]; in equal weight) [times]	dissolved faster as compared to Leu ([2]; in equimolar amount) [times]	remaining glycoamino acid (α/β-glucosidase)	dissolution rate ([2]; equimolar amount to glycoamino acid, 111 mg (0.85 mmol)/25 ml water)	Structure (SMILES)
not confirmed	liberated almost completely	about 50%	26 s	46	17	–	–	CC(C)C[C@H](NC(=O)OC1O[C@H](CO)[C@@H](O)[C@H](O)[C@H]1O)C(=O)O (stereo partly drawn) [Glc-Leu, N-(α/β-D-glucopyranosyloxycarbonyl)-L-leucine]
–	–	–	–	–	–	almost disappeared	–	O=C(N[C@@H](Cc1ccccc1)C(=O)O)OC1O[C@H](CO)[C@@H](O)[C@H](O)[C@H]1O (stereo partly drawn) [Glc-Phe, N-(α/β-D-glucopyranosyloxycarbonyl)-L-phenylalanine]
–	–	–	(1203 sec)	–	–	–	(450 sec)	CC(C)C[C@H](N)C(=O)O [Leu, L-leucine, reference compound]
